This note sets out measurements from paper PMC9119314 (Frontiers in Pharmacology, 2022).

The assay relates to P. falciparum (NF54-Mal8p1.16-GFP-Luc) late-stage gametocytes. In words: microbe, parasite or virus in culture. Type of assay: cell-based, Plasmodium falciparum. How it is done: Gametocytes were produced as per [Reader et al. (2015]; [2021)] from P. falciparum NF54-Mal8p1.16-GFP-Luc ([Adjalley et al., 2011]), and each batch was validated for viability and functionality before use. […] Drug assays were set up on day 10 (representing late gametocytes, >90% stage IV/V gametocytes) using a 2–3% gametocytemia, 1.5% hematocrit culture. The drug pressure was for 48 h under stationary, hypoxic conditions (90% N2, 5% O2, and 5% CO2) at 37°C. Luciferase activity was determined in 30 μL parasite lysates by adding 30 μL luciferin substrate (Promega Luciferase Assay System) at room temperature and detection of resultant bioluminescence at an integration constant of 10 s with the GloMax®-Multi + Detection System with Instinct® Software. Methylene blue (5 μM) and an internal control (MMV390048, 5 μM) were routinely included as controls.

Values joined by “and” are separate entries in the source; they are usually repeats but may differ in a detail not shown here. Identical values can stand only once.

On to `C[n+]1c2ccccc2cc2[n-]c3c(I)cc(I)cc3c21` [Compound 6, 7,9-diiodocryptolepine], for which, under “Plasmodium falciparum, NF54, 48 h, read-out: Activity against late-stage gametocytes IC50”, the IC50 (commonly the midpoint of a concentration-inhibition curve) was 2200 ± 20 nM. Besides, the “Selectivity index (SI), late-stage gametocytes with respect to Hep G cells” value (SI with respect to Hep G cells) was 13 and 12.8.
